Measurements from a melting point compilation (Tetko et al.; mined from patent text by program, amines drawn as free bases though some values may be those of a salt).

Compound | melting point
CCCCCCCCCCCCSC1C(=O)N(c2c(Cl)cc(Cl)cc2Cl)N=C1Nc1cc(OC)c(Cl)cc1Cl (configuration not stated) | 100 to 102 °C
CCOC(=O)C1CCC(CS(=O)(=O)c2ccc(Oc3ccc(OC(F)(F)F)cc3)cc2)(N(O)C=O)CC1 (configuration not stated) | 150 to 151 °C
CCOC(=O)CCc1nnc(CNC(=O)c2ccc(Cl)c(Cl)c2)n1-c1sc(CC)cc1C(=O)c1ccccc1Cl | 153 to 155 °C
CC12CCC3C(CC(O)C4(O)CC(O)CCC34C)C1CCC2=O (configuration not stated) | 304 to 306 °C
CS(=O)(=O)c1nnc(-c2ccc3occ(-c4ccc(OC(F)(F)F)cc4)c3c2)o1 | 196 to 197 °C
Cc1ccc(S(C)(=O)=O)c(C)c1Cl | 116 to 119 °C
COc1cc2c(cc1C(F)(F)F)N(C(=O)Nc1cc(F)cc(I)c1)CC2 | 221 to 224 °C
CCCCNC(=O)C(C)(C)n1cc(C)c(-c2ccccc2)n1 | 53 to 57 °C
C=CCSC(=NC(=O)OC)NC(=O)NC(C)C | 103 to 106 °C
CC(c1oc2ccccc2c(=O)c1-c1cccc(F)c1)n1nc(-c2ccco2)c2c(N)ncnc21 (configuration not stated) | 234 to 236 °C
Cc1c(C)c(N2Cc3cc4c(cc3C2)OCO4)c(C)c2c1OC(C)(C)C2c1ccc(C(C)C)cc1 (configuration not stated) | 175 to 177 °C
CCCCCCCCCCCCCCCC(=O)Oc1ccc(C(O)CNCCc2ccc(OC)c(OC)c2)cc1 (configuration not stated) | 79 to 81 °C
COc1ccc(CN(C)CCCCc2ccc(NC(=O)c3cccc4c(=O)cc(-c5ccccc5)[nH]c34)cc2)cc1OC | 171 °C
CC(C)Cn1c(=O)n(C)c(=O)c2c(OCCCO)c(Cc3cccnc3)sc21 | 111 to 112 °C
CCCC/C(=C\C(=O)O)c1cc(OC)c(O)c2c(CC)cccc12 | 139 to 140 °C
Cc1ccc2c(c1)CN1CCCC1C(=O)N2C (configuration not stated) | 80 to 82 °C

Compound | melting point
CCCCCCCSc1nn2c(=O)c(C)c(Cl)nc2s1 | 79 to 81 °C
COc1cc(OCCN2CCCC2)cc2nc(-c3cc(C)nc(C)c3)[nH]c(=O)c12 | 227 to 229 °C
CCc1ccc(C(=O)Cc2ccc(Br)cc2)cc1 | 146 °C
CC1CC(=O)NN=C1c1ccc(N2CCN(c3ncccn3)CC2)c([N+](=O)[O-])c1 (configuration not stated) | 232 to 233 °C
CN(C(=O)Cc1ccc(Cl)c(Cl)c1)[C@@H]1CCC(=O)C[C@H]1N1CCCC1 (relative stereo) | 148 to 149 °C
Cc1nc(-c2ccc(-c3cscn3)cc2)c(-c2ccc(S(N)(=O)=O)c(F)c2)o1 | 116 to 118 °C
Nc1nc2ccc(C(O)C(COc3ccccc3)N3CCC(Cc4ccccc4)CC3)cc2s1 (configuration not stated) | 210 to 214 °C
CCCCOc1ccc(S(=O)(=O)NCCCCOc2ccc(-n3ccnc3)cc2)cc1 | 103 to 105 °C
CN(Cc1ccc(CCn2cnc3cc(-c4ccc(Cl)cc4)sc3c2=O)cc1)S(C)(=O)=O | 230 to 232 °C
Cn1cc2c(nc(NC(=O)Nc3ccc(CC(=O)NCCOCCOCCNC(=O)OC(C)(C)C)cc3)n3nc(-c4ccco4)nc23)n1 | 157 to 165 °C
CSc1ccc(C(=O)Cc2ccccc2)cc1F | 71 to 72 °C
CCC1(c2ccc(=O)[nH]n2)CCCCC1 | 138 to 140 °C
CCCCCCC1=C(Br)C(O)(CO)NC1=O (configuration not stated) | 134 to 135 °C
CCCN(c1ncnc2[nH]cnc12)n1ccc2ccccc21 | 90 to 95 °C
CS(=O)(=O)c1csc(C(=O)C2C(=O)N(C(N)=O)c3ccc(Cl)cc32)c1 (configuration not stated) | 228 to 230 °C

Results, then the compound that gave them:

melting point | Compound
172 to 174 °C | Nc1ccc(Br)c(-c2nc3ncccc3o2)c1
157 to 159 °C | CO/N=C(\C(=O)N[C@@H]1C(=O)N[C@@H]1COC(=O)/C(=N\OC)c1csc(NC(=O)CCl)n1)c1csc(NC(=O)CCl)n1 (relative stereo)
70 to 72 °C | CCOC(=O)c1cnc(Cl)c([N+](=O)[O-])c1NC
156 to 158 °C | CC(C)(OCc1cc2cc(Cl)ccc2n1S(=O)(=O)c1ccc2c(c1)OCCO2)C(=O)O
66 to 68 °C | CCOC(=O)c1[nH]c(C(=O)OCC)c(C)c1C
227 to 228 °C | CCOC(=O)c1ccc(CNC(=O)c2csc3nc(C(=O)OCC)[nH]c(=O)c23)cc1
191 to 192 °C | CC(Cl)(Cl)C(NC(=O)c1cccc(F)c1)NC(=NC#N)Nc1ccc(Cl)nc1 (configuration not stated)
168 to 174 °C | O=C(N[C@H](Cc1ccccc1)C(=O)O)OCc1cc2cc(-c3ccccc3)ccc2[nH]1
156 to 158 °C | O=C(Nc1ccc(N2CCOCC2)cc1)N(C[C@H]1CC[C@H](CN(C(=O)Nc2ccc(N3CCOCC3)cc2)C2CCCCC2)CC1)C1CCCCC1
169 to 171 °C | O=C(O)c1cccc(S(=O)(=O)Oc2ccc(-c3ccc(-c4c(Cc5ccccc5)oc5ccccc45)cc3)cc2)c1
174 to 177 °C | CC(C)CNC(=O)c1cccc(-c2ccnc3c(C(=O)c4cccs4)cnn23)c1
153 to 156 °C | Cc1ccc(C)c(OCc2ccccc2C(=NOC(F)F)C(N)=O)c1
63 to 65 °C | COC(=O)C(C)Oc1ccc(OCc2ccccc2)cc1 (configuration not stated)
134 °C | CNC(=S)C1(c2ccc(C)cn2)CCCS1 (configuration not stated)
114 to 115 °C | O=C(c1cccc(C(F)(F)F)c1)c1cc2c(F)ccc(Br)c2o1
187 to 190 °C | COc1ccc(-c2ccc(C(=O)Nc3cc4ncc(CN5CCCC5)cc4cc3C)c(F)c2)cc1
90 to 92 °C | COc1cc(C=O)cc(OCCCC(=O)O)c1OC
85 to 86 °C | O=[N+]([O-])c1ccc2c(c1)CN(Cc1ccccc1)CC2

melting point | Compound
129 °C | CC1CCN(c2cc(-c3ncccn3)nc(Cl)c2-c2c(F)cccc2Cl)CC1
98 to 99 °C | COC(=O)CCc1cc2cc(Cl)ccc2n1S(=O)(=O)c1ccc(OC)cc1
183 to 186 °C | COc1ccc(Cl)cc1C(=O)NCCc1ccc(I)c(S(=O)(=O)N=CN(C)C)c1
106 to 108 °C | CC(=O)NC1Cc2ccc(C(=O)CCCCCl)cc2C1 (configuration not stated)
148 to 150 °C | CCNc1nc(Nc2ccccc2)ncc1C(C)=CC(=O)OCC
102 to 104 °C | CCOC(=O)c1[nH]c2c(c1OCC1CO1)CCCC2 (configuration not stated)
217 to 219 °C | COc1ccc(S(=O)(=O)N2C(=O)C(O[Si](C)(C)C)(c3ccccc3Cl)c3cc(Cl)c(OC)cc32)c(OC)c1 (configuration not stated)
181 to 182 °C | N#Cc1cnc2sc(I)cc2c1Cl
153 to 157 °C | Cc1cn(C2CC(C#N)C(COC(c3ccccc3)(c3ccccc3)c3ccccc3)O2)c(=O)[nH]c1=O (configuration not stated)
209 to 210 °C | O=c1[nH]c(=O)n(CCCCN2CCC(OC(c3ccccc3)c3ccccc3)CC2)c2ccc(Cl)cc12
154 to 156 °C | COc1ccc2nc3c(nc2c1)SC(C#N)=C(C#N)S3
185 to 187 °C | O=C(Nc1c(Cl)cccc1Cl)C1c2ccccc2COc2ccc(Br)cc21 (configuration not stated)
185 °C | O=[N+]([O-])c1cccc(-c2ccc3c(n2)[nH]c2ccccc23)c1
202 to 203 °C | CCC(O)CNC(=O)c1n[nH]cc1NC(=O)c1ccccn1 (configuration not stated)
123 to 125 °C | CNS(=O)(=O)CCc1ccc2[nH]cc(CC(=O)O)c2c1
204 °C | CC(C)(C)OC(=O)N1Cc2c(-c3noc(C4CC4)n3)ncn2-c2ccccc21
162 °C | CCn1nc(-c2ccc(OC)cc2)c(-c2ccc(OC)c(F)c2)cc1=O
122 to 123 °C | CCOc1ccc(-c2nc(C(O)c3ccc(OC)c(OC)c3)cs2)cc1OCC (configuration not stated)
